Results on one compound are retold here after patent publication US12351836B2, “Microhomology mediated repair of microduplication gene mutations” (UNIVERSITY OF MASSACHUSETTS, priority 2018, dated 2025).

This assay deals with PARP-1 (Homo sapiens, UniProt P09874). The experiment in a line: PARP-1 inhibition by rucaparib: MMEJ-based repair at the HPS1 locus in HPS1 B-LCL cells treated with SpyCas9 RNP. The class given is cell-based. From the text: To investigate whether nuclease-mediated collapse of a microduplication occurs via the MMEJ pathway, a DNA repair factor (PARP-1) that regulates DSB flux through this pathway was inhibited. PARP-1 influences the repair of a DSB through resection-dependent DNA repair pathways, such as MMEJ^3,16, which are in competition with the non-homologous end joining pathway (NHEJ) for DSB repair^17. Inhibition of the catalytic activity of PARP-1 by rucaparib reduces DSB flux through the MMEJ pathway, resulting in a decrease in microhomology-based deletion products in the resulting repair events^18. See, FIG. 18A. Patient-derived HPS1 B-LCL cells were treated with 10 µM or 20 μM rucaparib before and after treatment with SpyCas9 RNP to suppress MMEJ-mediated repair of DSBs. See, FIG. 12A. […] See, FIG. 12B. […] See, FIG. 12B-12D. […] See, FIG. 18.
For the PARP-1 inhibition experiments, 300,000 HPS1 patient-derived B-LCL cells were treated with 10 μM or 20 μM rucaparib camsylate (Sigma-Aldrich PZ0036) in standard growth medium for 24 h. Treated cells were electroporated with SpyCas9 RNPs following previously described protocol. Following another 24 h incubation in rucaparib-containing medium, cells were resuspended in PARP-1 inhibitor-free medium and harvested for analysis after 7 days.
The construction of the UMI-based library used a linear amplification step to incorporate UMIs within the amplicons from the target locus^15. HPS1 B-LCL cells and HEK293 Ts were harvested following nuclease treatment for genomic DNA extraction using the GenElute Mammalian Genomic DNA Miniprep Kit (Sigma GIN350).
The analysis of the UMI-tagged deep sequencing reads was adapted from a previous protocol^15. Initially, BWA (version 0.7.5) and SAMtools (version 0.1.19) were used to align each group of filtered merged-read pairs to a corresponding reference sequence, ignoring the unique molecular barcodes. Next, a custom Python and PySAM script was used to process mapped reads into counts of UMI-labelled reads for each target. The mapped reads were filtered by requiring a mapping value (MAPQ) larger than 30. […]

Chain of PARP-1 (P09874 whole entry): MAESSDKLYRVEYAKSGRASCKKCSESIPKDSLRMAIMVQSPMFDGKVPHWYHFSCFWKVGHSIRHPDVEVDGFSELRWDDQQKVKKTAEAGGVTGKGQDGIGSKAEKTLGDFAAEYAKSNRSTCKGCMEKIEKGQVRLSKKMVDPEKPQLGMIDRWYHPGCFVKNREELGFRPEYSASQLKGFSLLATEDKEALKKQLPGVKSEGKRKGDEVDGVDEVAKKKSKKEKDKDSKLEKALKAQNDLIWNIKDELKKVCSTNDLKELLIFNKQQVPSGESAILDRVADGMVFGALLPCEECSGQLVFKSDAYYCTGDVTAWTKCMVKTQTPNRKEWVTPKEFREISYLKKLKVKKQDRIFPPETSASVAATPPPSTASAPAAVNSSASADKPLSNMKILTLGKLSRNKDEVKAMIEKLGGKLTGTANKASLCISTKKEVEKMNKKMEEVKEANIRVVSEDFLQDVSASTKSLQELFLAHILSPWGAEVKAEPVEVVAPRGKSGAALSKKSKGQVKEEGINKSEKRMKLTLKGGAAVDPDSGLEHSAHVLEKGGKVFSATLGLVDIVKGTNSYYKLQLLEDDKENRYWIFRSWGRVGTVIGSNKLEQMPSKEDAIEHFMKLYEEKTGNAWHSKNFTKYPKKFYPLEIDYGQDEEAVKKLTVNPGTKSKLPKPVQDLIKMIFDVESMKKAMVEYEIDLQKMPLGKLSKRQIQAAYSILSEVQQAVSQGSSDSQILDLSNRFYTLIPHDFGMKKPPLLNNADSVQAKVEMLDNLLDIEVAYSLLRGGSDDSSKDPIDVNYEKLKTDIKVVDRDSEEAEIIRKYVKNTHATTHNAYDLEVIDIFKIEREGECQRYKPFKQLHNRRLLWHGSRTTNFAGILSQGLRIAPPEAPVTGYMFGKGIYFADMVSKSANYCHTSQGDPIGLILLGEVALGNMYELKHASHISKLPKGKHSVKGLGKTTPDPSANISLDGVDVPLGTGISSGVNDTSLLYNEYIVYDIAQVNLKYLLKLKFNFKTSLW

As to `CNCc1ccc(-c2[nH]c3cc(F)cc4c3c2CCNC4=O)cc1` [rucaparib, rucaparib camsylate], the 16-bp deletion product entry runs as follows: (10 μM rucaparib 24 h before and after SpyCas9 RNP) “around 15%”; (20 μM rucaparib 24 h before and after SpyCas9 RNP) about 6%. Moreover, the “editing rates at the HPS1 locus upon rucaparib treatment” value (10 or 20 μM rucaparib) was “overall reduction in editing rates”.
